Key:
[1] = target: T1, wildtype LRRK2 (Homo sapiens, UniProt Q5S007); experiment: LRRK2 degradation assay, wildtype LRRK2-HiBit expressed from plasmid in HEK293 cells; type: cell-based; conditions: HEK293 cells transfected with HiBit-tagged wildtype LRRK2, 24 hours compound incubation; for Dmax: read-out: **WT Dmax (%); for DC50: read-out: *WT DC50
T1 construct: expressed in transfected cells; host or cells: HEK293 (ATCC CRL-1573), transient transfection, ubiquitin promoter
Description: (§1) The assay measures the degradation of wildtype and G2019S LRRK2 tagged with a HiBit tag on the C-terminus of the protein that was expressed from a mammalian expression vector, driven by the ubiquitin promoter in HEK293 cells. Each compound dose-response was repeated on two separate days, on three separate plates each day.
(§2) Plasmid Preparation. Transfection mixes were assembled as follows and incubated for 30 minutes at room temperature. In a 15 mL tube, 5.25 mL Opti-MEM (no additions) was mixed with 17 μL Firefly Luciferase plasmid at 1 μg/μL and 158 μL WT plasmid DNA at 1 μg/μL (175 μg total DNA) were mixed by flicking. In a new 15 mL tube, 5.25 mL OptiMEM was mixed with 17 μL Firefly Luciferase plasmid at 1 μg/μL and 158 μL G2019S plasmid DNA at 1 μg/μL (175 μg total DNA) were mixed by flicking. X-tremeGene HP was mixed thoroughly using a vortex. Next, 175 μL was added to each tube and flicked to mix. Both tubes were left to incubate for 30 minutes at room temperature.
(§3) While the transfection mixes were incubating, HEK293 cells (acquired from ATCC; ATCC CRL-1573) were harvested with trypsin. Once cells are detached, the cells were resuspended in 12 mL OptiMEM+5% FBS and transferred to a 50 mL tube. The cells were mixed well and counted. Using OptiMEM+5% FBS, the cells were diluted in two 250 mL conical tubes at 0.71×10^6 cells/mL in 70 mL. One tube was labeled “WT” and the other “G2019S”. The WT and G2019S transfection mixes were added dropwise to the corresponding 250 mL tubes. The tubes were mixed first by pipetting then by swirling. The tubes were incubated at room temperature for at least 5 minutes.
(§4) Each tube was swirled before dispensing and after every three plates. Seventy microliters of cells were dispensed with WT or G2019S DNA to seven plates each. Three plates of each were tested with compound plate one (preparation described below) and three plates of each were tested with compound plate two (preparation described below). The first plate from each set served as a “prime” plate and was not used to test compounds. Each plate was incubated in the hood for 10 minutes before placing in the 37° C. incubator for 24 hours.
(§5) Preparation of Compound and Assay Plates. Two compound plates were made using 96 well polypropylene plates. Compounds were made up at 10 mM and were diluted to 1 mM in 30 μL. Each dose response curve included a well of DMSO, as a negative control and for normalization, and a well of 0.5 μM of Exemplary Compound 4 as a positive control. In addition to seven test compounds, each plate also included a dose response of Exemplary Compound 4. The compound plates were spun down along at 1200 rpm for 2 minutes.
(§6) The two compound plates were then mixed and 2 μL was diluted in intermediate plates having 248 μL of Opti-Mem in each well. Next, 10 μL diluted compounds from the intermediate plates were added to each test plate (three WT and three G2019S plates per compound plate for a total of 12 assay plates). The plates were incubated for 24 hours at 37° C.
(§7) All assay plates and all Nano-Glo Dual-Luciferase Reporter Assay System components (except for the DLR substrate) were equilibrated to room temperature. Next, the luciferase buffer was mixed with the lyophilized amber bottle until fully dissolved, and 75 μL of the luciferase mixture was added to each well of each assay plate. The assay plates were incubated for 10 minutes at room temperature with shaking for at least 5 minutes, and then read on a plate reader.
(§8) Developing Plates and Analyzing Data. One milliliter of DLR substrate and 1 mL LgBiT Protein were added to the Stop and Glo buffer, and 75 μL of the mixture was added to each well of each plate. Optically clear seals were added to each plate and each plate was incubated for 20 minutes with shaking for at least 10 minutes, and then read on a plate reader. […]

[2] = target: T2, G2019S LRRK2 (Homo sapiens, UniProt Q5S007, G2019S); experiment: LRRK2 degradation assay, G2019S LRRK2-HiBit expressed from plasmid in HEK293 cells; type: cell-based; conditions: HEK293 cells transfected with HiBit-tagged G2019S LRRK2, 24 hours compound incubation
T2 construct: expressed in transfected cells; host or cells: HEK293 (ATCC CRL-1573), transient transfection, ubiquitin promoter
Description: as §1, §2, §3, §4, §5, §6, §7, §8

T2 sequence (Q5S007 whole entry G2019S): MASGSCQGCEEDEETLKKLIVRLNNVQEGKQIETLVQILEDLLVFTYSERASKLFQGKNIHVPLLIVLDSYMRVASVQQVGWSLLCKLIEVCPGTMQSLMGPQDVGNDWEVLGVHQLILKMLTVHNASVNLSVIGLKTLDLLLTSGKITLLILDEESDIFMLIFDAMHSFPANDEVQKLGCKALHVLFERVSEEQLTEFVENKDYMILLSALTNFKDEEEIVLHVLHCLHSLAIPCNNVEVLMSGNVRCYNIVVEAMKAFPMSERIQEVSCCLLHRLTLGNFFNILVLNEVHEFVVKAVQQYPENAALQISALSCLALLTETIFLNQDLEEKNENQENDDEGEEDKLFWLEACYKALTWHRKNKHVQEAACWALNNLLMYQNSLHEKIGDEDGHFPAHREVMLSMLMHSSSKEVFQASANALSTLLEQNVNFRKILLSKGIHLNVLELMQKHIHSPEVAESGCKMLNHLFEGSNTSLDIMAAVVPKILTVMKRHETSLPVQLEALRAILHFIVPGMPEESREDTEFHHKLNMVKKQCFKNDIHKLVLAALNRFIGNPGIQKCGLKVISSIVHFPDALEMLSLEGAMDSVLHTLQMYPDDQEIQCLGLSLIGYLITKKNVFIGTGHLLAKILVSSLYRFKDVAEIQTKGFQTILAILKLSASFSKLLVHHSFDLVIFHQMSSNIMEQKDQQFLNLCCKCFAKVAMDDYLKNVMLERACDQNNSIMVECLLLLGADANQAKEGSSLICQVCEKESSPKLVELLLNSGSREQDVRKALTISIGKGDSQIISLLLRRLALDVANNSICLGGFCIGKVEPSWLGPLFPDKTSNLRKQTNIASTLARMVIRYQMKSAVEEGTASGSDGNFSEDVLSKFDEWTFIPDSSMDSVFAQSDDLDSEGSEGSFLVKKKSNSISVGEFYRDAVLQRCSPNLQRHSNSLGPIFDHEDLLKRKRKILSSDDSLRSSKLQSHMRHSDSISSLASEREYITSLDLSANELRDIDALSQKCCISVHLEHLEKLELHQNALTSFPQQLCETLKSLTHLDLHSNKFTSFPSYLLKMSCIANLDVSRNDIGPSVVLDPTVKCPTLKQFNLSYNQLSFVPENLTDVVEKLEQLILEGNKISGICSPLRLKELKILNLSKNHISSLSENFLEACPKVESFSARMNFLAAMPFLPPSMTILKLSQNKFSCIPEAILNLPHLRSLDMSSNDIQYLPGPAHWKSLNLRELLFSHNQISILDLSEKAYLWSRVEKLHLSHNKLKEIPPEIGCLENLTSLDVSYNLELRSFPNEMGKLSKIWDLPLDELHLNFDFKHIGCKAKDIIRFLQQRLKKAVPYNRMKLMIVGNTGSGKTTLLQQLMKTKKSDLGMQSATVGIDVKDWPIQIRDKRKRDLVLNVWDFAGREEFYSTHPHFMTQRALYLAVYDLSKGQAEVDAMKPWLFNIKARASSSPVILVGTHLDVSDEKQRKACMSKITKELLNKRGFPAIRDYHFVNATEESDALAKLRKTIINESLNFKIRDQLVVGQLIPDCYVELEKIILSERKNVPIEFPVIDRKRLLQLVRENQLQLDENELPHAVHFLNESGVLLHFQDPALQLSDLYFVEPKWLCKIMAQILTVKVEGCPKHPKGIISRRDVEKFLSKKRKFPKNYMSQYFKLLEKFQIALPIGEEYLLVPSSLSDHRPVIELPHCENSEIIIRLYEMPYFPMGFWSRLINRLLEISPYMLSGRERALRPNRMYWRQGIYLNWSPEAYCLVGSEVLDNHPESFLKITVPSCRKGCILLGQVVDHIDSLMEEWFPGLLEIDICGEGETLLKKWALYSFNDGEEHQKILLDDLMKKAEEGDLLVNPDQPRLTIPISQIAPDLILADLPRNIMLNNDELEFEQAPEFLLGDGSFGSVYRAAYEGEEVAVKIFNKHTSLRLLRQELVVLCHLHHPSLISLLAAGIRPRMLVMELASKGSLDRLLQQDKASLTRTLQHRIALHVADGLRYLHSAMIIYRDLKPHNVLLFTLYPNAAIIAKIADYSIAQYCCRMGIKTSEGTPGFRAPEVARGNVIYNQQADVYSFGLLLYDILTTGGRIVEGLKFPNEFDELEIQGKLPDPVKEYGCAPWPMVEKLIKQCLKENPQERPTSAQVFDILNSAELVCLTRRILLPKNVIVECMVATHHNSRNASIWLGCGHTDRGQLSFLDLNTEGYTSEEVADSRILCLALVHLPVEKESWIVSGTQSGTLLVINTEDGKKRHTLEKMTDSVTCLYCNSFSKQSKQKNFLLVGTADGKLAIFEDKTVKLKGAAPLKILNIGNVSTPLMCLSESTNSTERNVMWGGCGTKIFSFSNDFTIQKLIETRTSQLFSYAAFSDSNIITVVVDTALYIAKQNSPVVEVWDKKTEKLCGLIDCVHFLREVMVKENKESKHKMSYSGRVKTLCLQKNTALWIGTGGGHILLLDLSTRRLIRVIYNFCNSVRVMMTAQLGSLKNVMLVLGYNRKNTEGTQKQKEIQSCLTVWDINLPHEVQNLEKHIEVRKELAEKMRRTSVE
T1 sequence (Q5S007 whole entry): as the sequence (Q5S007 whole entry G2019S) above, with S2019G counted along it

| Structure (SMILES) | Dmax [1] | DC50 [1] | DC50 [2] | Dmax [2] |
| --- | --- | --- | --- | --- |
| CC(C)Oc1ccc2[nH]nc(-c3cc(N4CCN(CCN5CCN(CC6CCN(c7ccc8c(c7)C(=O)N(C7CCC(=O)NC7=O)C8=O)CC6)CC5)CC4)ncn3)c2c1 (stereo not shown) [compound 39, 2-(2,6-dioxopiperidin-3-yl)-5-(4-((4-(2-(4-(6-(5-isopropoxy-1H-indazol-3-yl)pyrimidin-4-yl)piperazin-1-yl)ethyl)piperazin-1-yl)methyl)piperidin-1-yl)isoindoline-1,3-dione] | ≥ 70% | < 10 nM | 10 to 50 nM | ≥ 70% |
| C[C@H]1CN(c2cc(-c3n[nH]c4ccc(OC5(C)CC5)cc34)ncn2)CCN1CCOCCOCCOc1ccc2c(c1)C(=O)N(C1CCC(=O)NC1=O)C2=O (stereo partly drawn) [compound 3, 2-(2,6-dioxopiperidin-3-yl)-5-[2-(2-{2-[(2S)-2-methyl-4-{6-[5-(1-methylcyclopropoxy)-1H-indazol-3-yl]pyrimidin-4-yl}piperazin-1-yl]ethoxy}ethoxy)ethoxy]-2,3-dihydro-1H-isoindole-1,3-dione] | ≥ 70% | < 10 nM | 10 to 50 nM | 50 to 70% |
| CC(C)Oc1ccc2[nH]nc(-c3ccnc(N4CCN(CCOCCOCCOCCOc5ccc6c(c5)C(=O)N(C5CCC(=O)NC5=O)C6=O)[C@@H](C)C4)c3)c2c1 (stereo partly drawn) [compound 11, 2-(2,6-dioxopiperidin-3-yl)-5-{2-[2-(2-{2-[(2S)-2-methyl-4-{4-[5-(propan-2-yloxy)-1H-indazol-3-yl]pyridin-2-yl}piperazin-1-yl]ethoxy}ethoxy)ethoxy]ethoxy}-2,3-dihydro-1H-isoindole-1,3-dione] | 50 to 70% | ≥ 100 nM | 10 to 50 nM | 50 to 70% |
| CC(C)Oc1ccc2[nH]nc(-c3cc(N4CCN(CCC5CCN(CC6CCN(c7ccc8c(c7)C(=O)N(C7CCC(=O)NC7=O)C8=O)CC6)CC5)CC4)ncn3)c2c1 (stereo not shown) [compound 41, 2-(2,6-dioxopiperidin-3-yl)-5-(4-((4-(2-(4-(6-(5-isopropoxy-1H-indazol-3-yl)pyrimidin-4-yl)piperazin-1-yl)ethyl)piperidin-1-yl)methyl)piperidin-1-yl)isoindoline-1,3-dione] | 50 to 70% | 10 to 50 nM | 10 to 50 nM | 50 to 70% |
| CC(C)Oc1ccc2[nH]nc(-c3cc(N4CCN(CCOCCOCCOCCOc5ccc6c(c5)C(=O)N(C5CCC(=O)NC5=O)C6=O)[C@@H](C)C4)ncn3)c2c1 (stereo partly drawn) [compound 9, 2-(2,6-dioxopiperidin-3-yl)-5-{2-[2-(2-{2-[(2S)-2-methyl-4-{6-[5-(propan-2-yloxy)-1H-indazol-3-yl]pyrimidin-4-yl}piperazin-1-yl]ethoxy}ethoxy)ethoxy]ethoxy}-2,3-dihydro-1H-isoindole-1,3-dione] | < 50% | ≥ 100 nM | ≥ 100 nM | < 50% |
| C[C@H]1CN(c2cc(-c3n[nH]c4ccc(OC5(C)CC5)cc34)ncn2)CCN1CCOC1CCN(CC2CCN(c3ccc4c(c3)C(=O)N(C3CCC(=O)NC3=O)C4=O)CC2)CC1 (stereo partly drawn) [compound 33, 2-(2,6-dioxopiperidin-3-yl)-5-{4-[(4-{2-[(2S)-2-methyl-4-{6-[5-(1-methylcyclopropoxy)-1H-indazol-3-yl]pyrimidin-4-yl}piperazin-1-yl]ethoxy}piperidin-1-yl)methyl]piperidin-1-yl}-2,3-dihydro-1H-isoindole-1,3-dione] | ≥ 70% | 10 to 50 nM | < 10 nM | ≥ 70% |
| C[C@H]1CN(c2cc(-c3n[nH]c4ccc(OC5(C)CC5)cc34)ncn2)CCN1CCOCCOCCOCCOc1ccc2c(c1)C(=O)N(C1(C)CCC(=O)NC1=O)C2=O (stereo partly drawn) [compound 19, 2-(3-methyl-2,6-dioxopiperidin-3-yl)-5-{2-[2-(2-{2-[(2S)-2-methyl-4-{6-[5-(1-methylcyclopropoxy)-1H-indazol-3-yl]pyrimidin-4-yl}piperazin-1-yl]ethoxy}ethoxy)ethoxy]ethoxy}-2,3-dihydro-1H-isoindole-1,3-dione] | < 50% | ≥ 100 nM | 10 to 50 nM | < 50% |
| CC(C)Oc1ccc2[nH]nc(-c3cc(N4CCN(CCOCCN5CCN(c6ccc7c(c6)C(=O)N(C6CCC(=O)NC6=O)C7=O)CC5)[C@@H](C)C4)ncn3)c2c1 (stereo partly drawn) [compound 22, 2-(2,6-dioxo-3-piperidyl)-5-[4-[2-[2-[(2S)-4-[6-(5-isopropoxy-1H-indazol-3-yl)pyrimidin-4-yl]-2-methyl-piperazin-1-yl]ethoxy]ethyl]piperazin-1-yl]isoindoline-1,3-dione] | < 50% | 10 to 50 nM | 10 to 50 nM | < 50% |
| CC(C)Oc1ccc2[nH]nc(-c3cc(N4CCN(CCN5CC(C6CCN(c7ccc8c(c7)C(=O)N(C7CCC(=O)NC7=O)C8=O)CC6)C5)CC4)ncn3)c2c1 (stereo not shown) [compound 44, 2-(2,6-dioxopiperidin-3-yl)-5-(4-(1-(2-(4-(6-(5-isopropoxy-1H-indazol-3-yl)pyrimidin-4-yl)piperazin-1-yl)ethyl)azetidin-3-yl)piperidin-1-yl)isoindoline-1,3-dione] | 50 to 70% | 10 to 50 nM | 10 to 50 nM | 50 to 70% |
| C[C@@H]1CN(c2cc(-c3n[nH]c4ccc(OC5(C)CC5)cc34)ncn2)C[C@H](C)N1CCOCCN1CCN(c2ccc3c(c2)C(=O)N(C2CCC(=O)NC2=O)C3=O)CC1 (stereo partly drawn) [compound 21, 5-[4-(2-{2-[(2R,6S)-2,6-dimethyl-4-{6-[5-(1-methylcyclopropoxy)-1H-indazol-3-yl]pyrimidin-4-yl}piperazin-1-yl]ethoxy}ethyl)piperazin-1-yl]-2-(2,6-dioxopiperidin-3-yl)-2,3-dihydro-1H-isoindole-1,3-dione] | ≥ 70% | < 10 nM | < 10 nM | 50 to 70% |
| CC(C)Oc1ccc2[nH]nc(-c3cc(N4CCN(CCN5CCC(CN6CCN(c7ccc8c(c7)C(=O)N(C7CCC(=O)NC7=O)C8=O)CC6)CC5)[C@@H](C)C4)ncn3)c2c1 (stereo partly drawn) [compound 30, 2-(2,6-dioxopiperidin-3-yl)-5-{4-[(1-{2-[(2S)-2-methyl-4-{6-[5-(propan-2-yloxy)-1H-indazol-3-yl]pyrimidin-4-yl}piperazin-1-yl]ethyl}piperidin-4-yl)methyl]piperazin-1-yl}-2,3-dihydro-1H-isoindole-1,3-dione] | ≥ 70% | < 10 nM | < 10 nM | ≥ 70% |
| CC(C)Oc1ccc2[nH]nc(-c3cc(N4CCN(CCCCN5CCN(c6ccc7c(c6)C(=O)N(C6CCC(=O)NC6=O)C7=O)CC5)[C@@H](C)C4)ncn3)c2c1 (stereo partly drawn) [compound 23, 2-(2,6-dioxopiperidin-3-yl)-5-(4-{4-[(2S)-2-methyl-4-{6-[5-(propan-2-yloxy)-1H-indazol-3-yl]pyrimidin-4-yl}piperazin-1-yl]butyl}piperazin-1-yl)-2,3-dihydro-1H-isoindole-1,3-dione] | 50 to 70% | < 10 nM | < 10 nM | 50 to 70% |
| CC(C)Oc1cc2c(-c3cc(N4CCN(CCOCCOCCOCCOc5ccc6c(c5)C(=O)N(C5CCC(=O)NC5=O)C6=O)[C@@H](C)C4)ncn3)n[nH]c2cc1F (stereo partly drawn) [compound 15, 2-(2,6-dioxopiperidin-3-yl)-5-{2-[2-(2-{2-[(2S)-4-{6-[6-fluoro-5-(propan-2-yloxy)-1H-indazol-3-yl]pyrimidin-4-yl}-2-methylpiperazin-1-yl]ethoxy}ethoxy)ethoxy]ethoxy}-2,3-dihydro-1H-isoindole-1,3-dione] | < 50% | ≥ 100 nM | ≥ 100 nM | < 50% |

Source: patent publication US20250114356A1, “INDAZOLE BASED COMPOUNDS AND ASSOCIATED METHODS OF USE” (Arvinas Operations, Inc., priority 2020, published 2025)
